In brackets after ≈: the same amount, converted by molar mass. Several values for one entry are separate records, joined by “and”; a condition that tells them apart may be missing. Equal entries are not always repeated. Where two headings read alike, the source gives them in different places.
Assays:
[1] = target: T1, Acetylcholinesterase (Electrophorus electricus, Type VI-S) (Electrophorus electricus, UniProt O42275); assay: AChE inhibition kinetics (Lineweaver–Burk / Michaelis–Menten); type: biochemical; conditions: for Inhibition Type: Lineweaver–Burk plots
T1 sequence (O42275 24-633): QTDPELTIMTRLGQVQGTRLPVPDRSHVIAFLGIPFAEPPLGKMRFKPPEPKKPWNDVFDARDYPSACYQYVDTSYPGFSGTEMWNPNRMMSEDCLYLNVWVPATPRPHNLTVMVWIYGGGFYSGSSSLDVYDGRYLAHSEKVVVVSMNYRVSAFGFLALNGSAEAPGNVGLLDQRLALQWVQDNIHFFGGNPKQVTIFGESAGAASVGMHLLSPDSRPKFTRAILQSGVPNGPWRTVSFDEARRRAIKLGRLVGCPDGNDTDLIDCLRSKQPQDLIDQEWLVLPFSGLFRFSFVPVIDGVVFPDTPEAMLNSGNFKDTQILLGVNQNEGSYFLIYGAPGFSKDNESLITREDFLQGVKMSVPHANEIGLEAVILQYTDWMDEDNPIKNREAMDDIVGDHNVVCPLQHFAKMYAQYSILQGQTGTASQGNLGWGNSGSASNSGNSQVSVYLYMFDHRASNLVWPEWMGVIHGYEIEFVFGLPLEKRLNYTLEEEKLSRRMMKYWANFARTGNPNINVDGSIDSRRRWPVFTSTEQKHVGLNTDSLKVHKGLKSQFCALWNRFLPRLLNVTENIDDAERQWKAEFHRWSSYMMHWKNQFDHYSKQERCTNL
Procedure: The inhibition curves were plotted using linear regression (Lineweaver–Burk plot) on GraphPad Prism 10.3 (Figure 8).
The Km and Vmax values were calculated using a non-linear fit (Michaelis–Menten equation) (Table 6). The Ki value (inhibitor constant), the dissociation constant describing the binding affinity between the inhibitor and the enzyme, was calculated as described previously.
AChE inhibition was measured using Ellman’s method with slight modifications. The compounds were incubated with the enzyme and the substrate (10 mM ATC) for 15 min. Later, 15 mM DTNB was added, and the plate was incubated for 10 min at 37 °C. The absorbance was measured at 412 nm using a multimode reader (Synergy-H1 BioTek, Agilent, Santa Clara, CA, USA). Galantamine served as a positive control. Percent inhibition was computed using the equation: […]
Statistical analysis was performed by one-way ANOVA followed by Dunnett’s post hoc test. The data were registered as the mean ± SD of at least three experiments. The symbol *** represent p < 0.001 significance compared to the control. The IC50 values were determined using non-linear regression, and the Lineweaver–Burk plots were drawn using linear regression analysis by GraphPad Prism 10.3.

[2] = target: T1, Acetylcholinesterase (Electrophorus electricus, Type VI-S); assay: biochemical; conditions: Electrophorus electricus AChE, mean of three experiments ± SD; read-out: IC50 anti-AChE activity (converted)
Aβ1-42 fibrillization = target: T2, Aβ1-42 fibrillization (Homo sapiens, UniProt P05067); assay: Thioflavin T (ThT) anti-Aβ fibrillization assay; type: biochemical; conditions: mean ± SD (n = 3); for Aβ fibrillization inhibition: samples 500 μg/mL, 24 h
T2 construct: Aβ1–42 was purchased from GenicBio Inc; purchased GenicBio Inc
T2 sequence (P05067 672-713): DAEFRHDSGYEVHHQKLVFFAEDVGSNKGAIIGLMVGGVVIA

AChE = conditions: cited from earlier work
[3] = test system: LPS-treated animal models; conditions: cited from earlier work
microglial cells = conditions: cited from earlier work
[4] = listed as 9-methyl-9H-carbazole-2-carbaldehyde
[5] = inhibitor 10 μg/mL, read-out: Ki
[6] = inhibitor 30 μg/mL, read-out: Ki
[7] = no inhibitor concentration stated, read-out: Ki value
[8] = pre-treatment, LPS-treated animal models

SMILES	Inhibition Type [1]	Inhibition Type [1, 4]	Vmax ([1]; inhibitor 10 μg/mL) [µmol/min/mg]	Ki [1, 5] [nM]	Vmax ([1]; inhibitor 30 μg/mL) [µmol/min/mg]	Ki [1, 6] [nM]	Ki [1, 7]	IC50 [2]	Aβ fibrillization inhibition (Aβ1-42 fibrillization)	Aβ fibrillization inhibition (Aβ1-42 fibrillization; [4])	IC50 anti-AChE, previously reported value (AChE) [µg/mL]	Aβ1-40 levels ([3]; animal model)	Cognition ([3]; animal model)	ACh levels in the brain [3, 8]	AChE in the brain [3, 8]	Inhibition Type ([1]; listed as mahanimbine)	Inhibition Type ([1]; listed as murrayafoline A)	Neuroprotective activity by reducing inflammation (microglial cells)	Inhibition Type ([1]; listed as murrayanol)	inhibition at 50 µM (Aβ1-42 fibrillization; phenol red 50 μM, read-out: Aβ fibrillization inhibition (positive control)) [%]
Cn1c2ccccc2c2ccc(C=O)cc21 [9-Methyl-9H-carbazole-2-carbaldehyde, 9-methyl-9H-carbazole-2-carbaldehyde]	Competitive	Competitive inhibition	0.3874	29200	0.3634	31400	~30000 nM	37600 nM	did not show any inhibition	no inhibition										
COc1ccc2c3c1O[C@H]1C[C@@H](O)C=C[C@@]31CCN(C)C2 [Galantamine, galantamine]											0.31 (≈ 1.08 µM)									
CC(C)=CCCC1(C)C=Cc2c(c(C)cc3c2[nH]c2ccccc23)O1 (centres unmarked) [Mahanimbine, mahanimbine]	Non-Competitive		0.2098	599	0.2231	599	440 to 590 nM	~603 nM and 603 nM	27.68 ± 2.71%			reduced	improved cognition	improved	inhibited	non-competitive inhibition				
COc1cc(C)cc2c1[nH]c1ccccc12 [Murrayafoline A, murrayafoline A]	Competitive		0.3826	58700	0.3753	61000	~60000 nM	67800 nM	33.60 ± 0.55%								Competitive inhibition	neuroprotective activity		
COc1cc2[nH]c3c(C/C=C(\C)CCC=C(C)C)c(O)ccc3c2cc1C [Murrayanol, murrayanol]	Competitive		0.3756	444	0.3613	470	~450 nM and 450 nM and 440 to 590 nM	~550 nM and 523 nM	40.83 ± 0.30%										Competitive inhibition	
O=S1(=O)OC(c2ccc(O)cc2)(c2ccc(O)cc2)c2ccccc21 [phenol red, reference compound]																				67.86 ± 0.38

Source: PMC12348157, “Neuroprotective Evaluation of Murraya Carbazoles: In Vitro and Docking Insights into Their Anti-AChE and Anti-Aβ Activities” (Molecules, 2025)
